In the assay the test system is P388 leukemia ip, CD2F1 mice, survival T/C. The assay is described as follows: NCI In Vivo Anticancer Drug Screen. Data for tumor model P388 Leukemia (intraperitoneal) in CD2F1 (CDF1) mice. The note with it: endpoint: median survival time, higher = longer survival. The gist of the method:
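Mice carrying the transplanted tumor received test compound or vehicle. Survival was recorded in each group, and the value is the treated-group measurement divided by that of the vehicle-treated control group.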

[1] abbreviates: dose: 50.0 mg/kg/injection, schedule: Q01DX005 (ip), vehicle: Klucel (hydroxypropylcellulose) (HPC).
Setting [2] is: dose: 100.0 mg/kg/injection, schedule: Q01DX005 (ip), vehicle: Klucel (hydroxypropylcellulose) (HPC).
[3] abbreviates: dose: 200.0 mg/kg/injection, schedule: Q01DX005 (ip), vehicle: Klucel (hydroxypropylcellulose) (HPC).
The mark [4] stands for this setting: dose: 50.0 mg/kg/injection, schedule: Q01DX009 (ip), vehicle: saline.
The mark [5] stands for this setting: dose: 100.0 mg/kg/injection, schedule: Q01DX009 (ip), vehicle: saline.
Setting [6] is: dose: 200.0 mg/kg/injection, schedule: Q01DX009 (ip), vehicle: saline.
The mark [7] stands for this setting: dose: 50.0 mg/kg/injection, schedule: Q01DX005 (ip), vehicle: saline with Tween-80.
The mark [8] stands for this setting: dose: 100.0 mg/kg/injection, schedule: Q01DX005 (ip), vehicle: saline with Tween-80.
Setting [9] is: dose: 200.0 mg/kg/injection, schedule: Q01DX005 (ip), vehicle: saline with Tween-80.
Setting [10] is: dose: 60.0 mg/kg/injection, schedule: Q01DX005 (ip), vehicle: saline with Tween-80.
Where [11] appears, read: dose: 120.0 mg/kg/injection, schedule: Q01DX005 (ip), vehicle: saline with Tween-80.
Where [12] appears, read: dose: 240.0 mg/kg/injection, schedule: Q01DX005 (ip), vehicle: saline with Tween-80.
Setting [13] is: dose: 50.0 mg/kg/injection, schedule: Q01DX009 (ip), vehicle: Klucel (hydroxypropylcellulose) (HPC).
Setting [14] is: dose: 100.0 mg/kg/injection, schedule: Q01DX009 (ip), vehicle: Klucel (hydroxypropylcellulose) (HPC).
[15] abbreviates: dose: 200.0 mg/kg/injection, schedule: Q01DX009 (ip), vehicle: Klucel (hydroxypropylcellulose) (HPC).

Molecules are shown by their SMILES. Where “and” joins values, the source holds several entries; their conditions need not be identical. Equal entries are not always repeated. Toxic doses and inconclusive results are not listed. Square brackets hold non-standard residues; d marks the D form. Peptide text beside a SMILES is read from it. * marks the point of attachment. ξ: configuration not given here. Ac5c = NC1(C(=O)O)CCCC1; Cbz = O=C(OCc1ccccc1)*; ξV = CC(C)C(N)C(=O)O

On to `N=[N+]=NC1C(O)C(CO)OC1n1cnc2c(N)ncnc21` (centres undefined), for which the T/C runs as follows: (dose: 5.0 mg/kg/injection, schedule: Q03HX016 (ip), vehicle: Klucel (hydroxypropylcellulose) (HPC)) 118 % of control; (dose: 10.0 mg/kg/injection, schedule: Q03HX016 (ip), vehicle: Klucel (hydroxypropylcellulose) (HPC)) 110 % of control; (dose: 80.0 mg/kg/injection, schedule: Q03HX016 (ip), vehicle: Klucel (hydroxypropylcellulose) (HPC)) 153 % of control; (dose: 160.0 mg/kg/injection, schedule: Q03HX016 (ip), vehicle: Klucel (hydroxypropylcellulose) (HPC)) 64 % of control.
Take `COc1cc(Br)c(C(C)(C)C#N)cc1OC`: the T/C reads like this: under setting [1], 101 % of control; under setting [2], 101 % of control; under setting [3], 100 % of control.
As for `CS(=O)(=O)Oc1cccn(S(C)(=O)=O)c1=O`, the T/C by setting is: (dose: 12.5 mg/kg/injection, schedule: Q01DX009 (ip), vehicle: saline) 97 % of control; (dose: 25.0 mg/kg/injection, schedule: Q01DX009 (ip), vehicle: saline) 92 % of control; under setting [4], 97 % of control; under setting [5], 97 % of control; under setting [6], 97 % of control.
Take `CC(C)C(NC(=O)C1(NC(=O)OCc2ccccc2)CCCC1)C(=O)O` (centres undefined) (Cbz-[Ac5c]-[ξV]-OH): the T/C is, setting by setting: under setting [7], 99 % of control; under setting [8], 96 % of control; under setting [9], 99 % of control.
As to `Cc1nc2ccccc2nc1NNc1ccccc1`, the T/C reads like this: under setting [7], 90 % of control; under setting [8], 87 % of control; under setting [9], 87 % of control.
As for `COC(C(=O)C(O)C(C)O)C1Cc2cc3cc(OC4CC(OC5CC(O)C(O)C(C)O5)C(O)C(C)O4)c(C)c(O)c3c(O)c2C(=O)C1OC1CC(OC2CC(O)C(OC3CC(C)(O)C(O)C(C)O3)C(C)O2)C(O)C(C)O1` (centres undefined), the T/C reads like this: (dose: 0.06 mg/kg/injection, schedule: Q01DX009 (ip), vehicle: saline) 122 % of control; (dose: 0.13 mg/kg/injection, schedule: Q01DX001 (ip), vehicle: saline) 104 % of control; (dose: 0.13 mg/kg/injection, schedule: Q01DX009 (ip), vehicle: saline) 106 % of control; (dose: 0.25 mg/kg/injection, schedule: Q01DX001 (ip), vehicle: saline) 103 % of control; (dose: 0.25 mg/kg/injection, schedule: Q01DX009 (ip), vehicle: saline) 109 % of control; (dose: 0.5 mg/kg/injection, schedule: Q01DX001 (ip), vehicle: saline) 109 % of control. In addition, the T/C runs as follows: (dose: 0.5 mg/kg/injection, schedule: Q04DX003 (ip), vehicle: saline) 116 % of control; (dose: 2.0 mg/kg/injection, schedule: Q01DX009 (ip), vehicle: saline) 151 % of control.
As for `CCC(=O)c1ccc(OCC(O)COc2c3ccccc3nc3ccccc23)cc1` (centres undefined), the T/C is, setting by setting: under setting [7], 87 % of control; under setting [8], 90 % of control; under setting [9], 92 % of control.
For `CCCNC(=O)OCC1=C(COC(=O)NCCC)C2OC1C(C(=O)OC)=C2C(=O)OC`, the T/C was 89 % of control (dose: 12.5 mg/kg/injection, schedule: Q01DX009 (ip), vehicle: distilled water + Tween-80); 93 % of control (dose: 25.0 mg/kg/injection, schedule: Q01DX009 (ip), vehicle: distilled water + Tween-80); 86 % of control (dose: 50.0 mg/kg/injection, schedule: Q01DX009 (ip), vehicle: distilled water + Tween-80).
`Cc1ncc2n1-c1ccc(Cl)cc1C(c1ccccc1F)=NC2`: the T/C reads like this: under setting [4], 103 % of control; under setting [5], 112 % of control.
For the compound `CN(C)c1ccc(C2(c3ccccc3)c3ccccc3C(=O)N2N)cc1` (centres undefined), the T/C is, setting by setting: (dose: 100.0 mg/kg/injection, schedule: Q04DX002 (ip), vehicle: saline with Tween-80) 89 % of control; (dose: 200.0 mg/kg/injection, schedule: Q04DX002 (ip), vehicle: saline with Tween-80) 89 % of control; (dose: 400.0 mg/kg/injection, schedule: Q04DX002 (ip), vehicle: saline with Tween-80) 90 % of control.
In the case of `CCOC(=O)C1Cc2c([nH]c(=O)[nH]c2=O)OC1c1ccc(OC)cc1` (centres undefined), the T/C reads like this: under setting [1], 97 % of control; under setting [2], 100 % of control; under setting [3], 97 % of control.
With `COc1ccc(N=Cc2ccc(C=Nc3ccc(OC)cc3OC)cc2)c(OC)c1`, the T/C was 93 % of control under setting [4], 96 % of control under setting [5] and 91 % of control under setting [6].
Regarding `CN1N=Nc2ccccc2C1(O)c1ccc(F)cc1` (centres undefined), the T/C under setting [7] was 104 % of control, the T/C under setting [8] is 104 % of control and the T/C under setting [9] was 107 % of control.
Take `C=C1CC23CCC4C(C)(C(=O)O)CCCC4(C)C2CCC1C3` (centres undefined): the T/C was 116 % of control under setting [7]; 116 % of control under setting [8]; 117 % of control under setting [9]; 107 % of control (dose: 400.0 mg/kg/injection, schedule: Q01DX005 (ip), vehicle: saline with Tween-80).
Turning to `CCOC(=O)CC(SCP(=O)(OCC)OCC)C(=O)OCC` (centres undefined), the T/C is 101 % of control under setting [10], 95 % of control under setting [11] and 93 % of control under setting [12].
Take `CC(=O)O[C@@H]1CCC2CCC1N2C` (some centres undefined): the T/C reads like this: (dose: 50.0 mg/kg/injection, schedule: Q01DX005 (ip), vehicle: saline) 97 % of control; (dose: 100.0 mg/kg/injection, schedule: Q01DX005 (ip), vehicle: saline) 95 % of control; (dose: 200.0 mg/kg/injection, schedule: Q01DX005 (ip), vehicle: saline) 95 % of control.
Take `N#CC(C(=O)C(=O)Nc1cccc(C(F)(F)F)c1)c1ccccc1Cl` (centres undefined): the T/C is 102 % of control under setting [10], 97 % of control under setting [11] and 99 % of control under setting [12].
Regarding `CCOC(=O)C1(CN2C(=O)c3ccccc3C2=O)C(=O)Nc2ccccc21` (centres undefined), the T/C was 87 % of control under setting [13], 87 % of control under setting [14] and 87 % of control under setting [15].
Regarding `O=c1[nH]c2c([N+](=O)[O-])cc(Cl)cc2nc1/C=C(\O)c1ccc(Cl)cc1`, the T/C was 99 % of control (dose: 30.0 mg/kg/injection, schedule: Q01DX005 (ip), vehicle: Klucel (hydroxypropylcellulose) (HPC)); 100 % of control (dose: 60.0 mg/kg/injection, schedule: Q01DX005 (ip), vehicle: Klucel (hydroxypropylcellulose) (HPC)); 99 % of control and 108 % of control (dose: 120.0 mg/kg/injection, schedule: Q01DX005 (ip), vehicle: Klucel (hydroxypropylcellulose) (HPC)); 105 % of control (dose: 240.0 mg/kg/injection, schedule: Q01DX005 (ip), vehicle: Klucel (hydroxypropylcellulose) (HPC)).
Turning to `CCOC(=O)C(=CNc1cc(OC(C)=O)ccc1C)C(=O)OCC`, the T/C runs as follows: under setting [1], 110 % of control; under setting [2], 100 % of control; under setting [3], 96 % of control.
Turning to `O=C(NC[N+]12CCO[B-]1(c1cccc(Cl)c1)OCC2)c1ccccc1O` (centres undefined), the T/C under setting [1] is 104 % of control, the T/C under setting [2] was 104 % of control and the T/C under setting [3] is 96 % of control.
Regarding `CCOC(=O)c1c(SCC)c(C=C(C(C)=O)C(C)=O)c2ccccn12`, the T/C is 99 % of control (dose: 100.0 mg/kg/injection, schedule: Q01DX001 (ip), vehicle: saline with Tween-80); 95 % of control (dose: 200.0 mg/kg/injection, schedule: Q01DX001 (ip), vehicle: saline with Tween-80); 89 % of control (dose: 400.0 mg/kg/injection, schedule: Q01DX001 (ip), vehicle: saline with Tween-80).
With `O=C(c1cccs1)c1ccc(Cl)cc1Cl`, the T/C under setting [13] is 107 % of control, the T/C under setting [14] is 103 % of control and the T/C under setting [15] is 104 % of control.
As to `C/C(=N\NC(=S)/N=c1\sccn1Cc1ccccc1)c1ccccn1`, the T/C (dose: 6.25 mg/kg/injection, schedule: Q01DX005 (ip), vehicle: saline with Tween-80) is 117 % of control and 123 % of control.
For `CCOC(=O)Nc1cc(Cl)c2[nH]c(=O)[nH]c2n1`, the T/C was 103 % of control (dose: 12.5 mg/kg/injection, schedule: Q01DX009 (ip), vehicle: other); 106 % of control (dose: 25.0 mg/kg/injection, schedule: Q01DX009 (ip), vehicle: other); 100 % of control (dose: 50.0 mg/kg/injection, schedule: Q01DX009 (ip), vehicle: other); 104 % of control (dose: 100.0 mg/kg/injection, schedule: Q01DX009 (ip), vehicle: other); 100 % of control (dose: 200.0 mg/kg/injection, schedule: Q01DX009 (ip), vehicle: other).

Source of the values: PubChem BioAssay AID330 (DTP/NCI, 2004).
